Source: PMC9331957, “Design and Validation of Nanofibers Made of Self-Assembled Peptides to Become Multifunctional Stimuli-Sensitive Nanovectors of Anticancer Drug Doxorubicin” (Pharmaceutics, 2022)

Tests used:
[1] = tested on: MDA-MB-231; assay: Cell proliferation assay (CellTiter-Glo, ATP luminescence); assay type: cell-based, human; details: MDA-MB-231, 72 h
Procedure: The cytotoxicity profiles of the NF-Doxo and NF-Doxo-SPION were established on cancer cell line MDA-MB-231 (triple negative human breast cancer). Triple MDA-MB-231 (ECACC, Salisbury, UK) cells were cultured at 37 °C in an atmosphere containing 5% CO2. The culture medium was made of DMEM supplemented with 10% fetal bovine serum, 1% non-essential amino acid (Hyclone Laboratories, Logan, UT, USA), and 1% penicillin/streptomycin (Gibco®, Life Technologies, Paisley, UK). The cell harvesting was made with trypsin/EDTA (0.05%) (Gibco®, Life Technologies, Paisley, UK) at 80% of confluence.
Cell viability and proliferation were studied, using a luminescent test based on quantification of ATP, using the CellTiter-Glo cell proliferation assay (Promega, Madison, WI, USA). Briefly, 3.000 MDA-MB-231 cells were incubated in 100 μL of medium in 96-well plates for 24 h and then treated with different samples. A H2O2 solution at 10 mM was used as positive control and the culture medium alone was tested as a negative control. Doxo (stock solution at 5.24 mM in PBS) was used as a reference. […] Cell viability was then determined using CellTiter-Glo reagent (Promega, Madison, WI, USA). […] The luminescence values were measured with a gain at 135, with an acquisition at 0.5 s, using a microplate reader (Bio-Tek® instruments, Inc., VT, Santa Clara, CA, USA). […]

[2] = tested on: MDA-MB-231 cells; details: 1 h, 5 µM
Text: To study the uptake of the nanofibers by cancer cells in vitro, the intrinsic fluorescence of the Doxo was followed by means of the confocal spectral imaging (CSI) technique. Briefly, the CSI consists in recording a full fluorescence spectrum from each point of a scanned optical section of the selected cell and then generating the maps (pseudo-color images) reflecting the distribution of spectral parameters (position, shape, width, intensity) in correlation with biochemical events (accumulation, interaction, metabolism, etc). The cells (SKBR3 or MDA-MB-435 cancer cell lines) were plated at a density of 5 × 10^4 cells/well onto cover glasses in 24-well plates for 1 or 6 h. […] They were analyzed under the 50× LWD objective (numerical aperture 0.75; Olympus, Tokyo, Japan) of a LabRam laser scanning confocal microspectrometer (Horiba SA, Villeneuve d’Ascq, Hauts De France, France) equipped with a 491 nm laser source (Cobolt Calypso™), an automated X–Y–Z scanning stage, a low dispersion grating (300 grooves/mm) and an air-cooled EM CCD detector. […] For fluorescence spectral images acquisition from living cells, the living cells were placed under a 50× microscope and scanned through their equatorial optical section (scanning step of 0.8 µm). The full fluorescence spectrum was recorded from each scanned point (typically 30 × 30 spectra per cell, 0.05 s per spectrum). […]

IC50 ratio between NF-Doxo and free Doxo (times lower) [1]: 10 times
SMILES: COc1cccc2c1C(=O)c1c(O)c3c(c(O)c1C2=O)C[C@@](O)(C(=O)CO)C[C@@H]3O[C@H]1C[C@H](N)[C@H](O)[C@H](C)O1 [Doxo, Doxorubicin]
fraction of intracellular fluorescence: cytosolic [2]: 24.6 | fraction of intracellular fluorescence: nuclear [2]: 75.4
